Experimental data taken from the supplement of paper PMC10307832.

Experiments:
Experiment in all cases: relative viability (nuclei count vs DMSO), 5 days (fraction); higher = more cells survive
RU-SKI 43 + Phenformin = compound: CC[C@@H](C)CNCC(=O)N1CCC2=C([C@@H]1COC3=CC=CC(=C3)C)C=CS2 [RU-SKI 43] + N=C(N)NC(=N)NCCc1ccccc1 [Phenformin] (partner 250 µM)
How it was run: (§1)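 For relative viability, nuclei counts in treated wells were divided by those in vehicle wells. Lung cancer cell lines had been pin-tool dosed in 1536-well plates the day after seeding and cultured for 5 days, then fixed and stained in one step (final 0.05% Triton X-100, 1% formaldehyde, 1 ug/ml Hoechst) and imaged at 4×. Doses were one drug alone or a fixed anchor-drug dose plus five library-drug doses (not always all listed) in √10 steps, and values are duplicate-plate medians.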

Irinotecan + Crizotinib = compound: CCc1c2c(nc3ccc(OC(=O)N4CCC(N5CCCCC5)CC4)cc13)-c1cc3c(c(=O)n1C2)COC(=O)[C@]3(O)CC [Irinotecan] + C[C@@H](Oc1cc(-c2cnn(C3CCNCC3)c2)cnc1N)c1c(Cl)ccc(F)c1Cl [Crizotinib] (partner 1 µM)
How it was run: as §1

Irinotecan + Phenformin = compound: CCc1c2c(nc3ccc(OC(=O)N4CCC(N5CCCCC5)CC4)cc13)-c1cc3c(c(=O)n1C2)COC(=O)[C@]3(O)CC [Irinotecan] + N=C(N)NC(=N)NCCc1ccccc1 [Phenformin] (partner 250 µM)
How it was run: as §1

MK-8033 + Tozasertib = compound: Cn1cc(-c2cnc3ccc4ccc(CS(=O)(=O)NCc5ccccn5)cc4c(=O)c3c2)cn1 [MK-8033] + Cc1cc(Nc2cc(N3CCN(C)CC3)nc(Sc3ccc(NC(=O)C4CC4)cc3)n2)n[nH]1 [Tozasertib] (partner 0.1 µM)
How it was run: as §1

Cell Line | relative viability (RU-SKI 43 + Phenformin; first compound 0.1 µM) | relative viability (RU-SKI 43 + Phenformin; first compound 0.3162 µM) | relative viability (RU-SKI 43 + Phenformin; first compound 1 µM) | relative viability (RU-SKI 43 + Phenformin; first compound 3.162 µM) | relative viability (RU-SKI 43 + Phenformin; first compound 10 µM) | relative viability (Irinotecan + Crizotinib; first compound 0.6325 µM) | relative viability (Irinotecan + Crizotinib; first compound 2 µM) | relative viability (Irinotecan + Crizotinib; first compound 6.325 µM) | relative viability (Irinotecan + Crizotinib; first compound 20 µM) | relative viability (Irinotecan + Phenformin; first compound 0.6325 µM) | relative viability (Irinotecan + Phenformin; first compound 2 µM) | relative viability (Irinotecan + Phenformin; first compound 6.325 µM) | relative viability (Irinotecan + Phenformin; first compound 20 µM) | relative viability (MK-8033 + Tozasertib; first compound 0.02 µM) | relative viability (MK-8033 + Tozasertib; first compound 0.06325 µM) | relative viability (MK-8033 + Tozasertib; first compound 0.2 µM) | relative viability (MK-8033 + Tozasertib; first compound 0.6325 µM) | relative viability (MK-8033 + Tozasertib; first compound 2 µM)
NCI-H596 | 0.776 | 0.808 | 0.725 | 0.921 | 0.77 | 0.945 | 0.924 | 0.741 | 0.68 | 0.699 | 0.83 | 0.784 | 0.745 | 0.802 | 0.898 | 0.859 | 0.944 | 0.853
LXF-289 | 0.53 | 0.551 | 0.574 | 0.548 | 0.514 | 0.726 | 0.549 | 0.247 | 0.208 | 0.5 | 0.46 | 0.262 | 0.162 | 0.187 | 0.148 | 0.157 | 0.203 | 0.179
NCI-H727 | 0.524 | 0.59 | 0.676 | 0.662 | 0.445 | 0.366 | 0.556 | 0.497 | 0.447 | 0.464 | 0.611 | 0.524 | 0.413 | 0.577 |  | 0.714 | 0.465 | 0.61
NCI-H2009 | 0.49 | 0.514 | 0.519 | 0.474 | 0.424 | 0.912 | 0.857 | 0.233 | 0.224 | 0.421 | 0.411 | 0.232 | 0.167 | 0.776 | 0.703 | 0.694 | 0.707 | 0.737
NCI-H1993 | 0.526 | 0.5 | 0.471 | 0.511 | 0.487 | 0.897 | 0.656 | 0.671 | 0.664 | 0.536 | 0.503 | 0.531 | 0.551 | 0.564 | 0.525 | 0.561 | 0.525 | 0.583
HCC-366 | 0.616 | 0.676 | 0.652 | 0.582 | 0.453 | 0.274 | 0.132 | 0.0524 | 0.0502 | 0.495 | 0.371 | 0.0734 | 0.078 | 0.114 | 0.131 | 0.0893 | 0.102 | 0.0504
NCI-H322M | 0.718 | 0.758 | 0.832 | 0.833 | 0.771 | 0.475 | 0.405 | 0.42 | 0.316 | 0.745 | 0.758 | 0.515 | 0.265 | 0.522 | 0.464 | 0.427 | 0.449 | 0.44
